# Measured values reported in US20260053861A1, “CELL COMPOSITIONS AND METHODS OF USING THE SAME” (THE REGENTS OF THE UNIVERSITY OF CALIFORNIA, priority 2022, published 2026).
# Structures can show the parent of a compound that is named as a salt.
# Tested on: hPSC-SCs
# Settings: not given
row,Compound,z.score.t
1,CCOC(=O)c1cncn1[C@H](C)c1ccccc1 [Etomidate],−0.1902
2,CC(C)c1c(CN(C)C(C)Cc2ccccc2)n(C)n(-c2ccccc2)c1=O (centres unmarked) [Famprofazone],−1.288
3,CC(Cc1ccc(O)cc1)NCC(O)c1cc(O)cc(O)c1 (centres unmarked) [Fenoterol hydrobromide],0.8992
4,C/C=C1/C[N@+]2(C)CC[C@]34C(=C(C=O)[C@H]1C[C@@H]32)Nc1ccccc14.[Cl-] [Fluorocurarine chloride],1.364
5,CCCCc1ccc(C(=O)O)nc1 [Fusaric acid],1.345
6,NCC1(CC(=O)O)CCCCC1 [Gabapentin],−0.496
7,COc1ccc2c3c1O[C@H]1C[C@@H](O)C=C[C@@]31CCN(C)C2 [Galanthamine hydrobromide],0.8023
8,C=C[C@]12CN(C)[C@@H]3[C@H]4CO[C@H](C[C@H]41)[C@]1(C(=O)Nc4ccccc41)[C@@H]32 [Gelsemine],1.601
9,C[C@@H]1C(=O)O[C@H]2C[C@@]34[C@H]5C[C@@H](C(C)(C)C)[C@]36[C@@H](OC(=O)[C@@H]6O)O[C@@]4(C(=O)O5)[C@]21O [Ginkgolide A],1.034
10,O=C(OCC(O)CO)c1ccccc1Nc1ccnc2cc(Cl)ccc12 (centres unmarked) [Glafenine hydrochloride],−0.727
11,"CCC1(c2ccc(N)cc2)CCC(=O)NC1=O (centres unmarked) [Glutethimide, para-amino]",0.1149

# Same assay, conditions: HTS viability of hPSC-SCs in the presence of 30 mM glucose; Prestwick library; Table S4
row,Compound,z.score.t
1,C#C[C@]1(O)CC[C@H]2[C@@H]3CCc4cc(OC)ccc4[C@H]3CC[C@@]21C [Ethynylestradiol 3-methyl ether],0.9696
2,"CC(O)(P(=O)(O)O)P(=O)(O)O [Etidronic acid, disodium salt]",−0.8317
3,CCc1cccc(CC)c1NC(=O)CN(CC(=O)O)CC(=O)O [Etifenin],1.002
4,CCNCC(O)c1cccc(O)c1 (centres unmarked) [Etilefrine hydrochloride],−0.4549
5,CCc1cccc2c3c([nH]c12)C(CC)(CC(=O)O)OCC3 (centres unmarked) [Etodolac],−0.139
6,Cn1c(=O)c2c(ncn2CCO)n(C)c1=O [Etofylline],0.9225
7,COc1cc([C@@H]2c3cc4c(cc3[C@@H](O[C@@H]3O[C@@H]5CO[C@@H](C)O[C@H]5[C@H](O)[C@H]3O)[C@H]3COC(=O)[C@H]23)OCO4)cc(OC)c1O [Etoposide],−1.576
8,CC1CC(OC(=O)C(O)c2ccccc2)CC(C)(C)N1C (centres unmarked) [Eucatropine hydrochloride],0.0568
9,COc1c2ccoc2nc2c(OC)c(OCC(O)C(C)(C)O)ccc12 (centres unmarked) [Evoxine],0.0116
10,NC(N)=Nc1nc(CSCCC(N)=NS(N)(=O)=O)cs1 [Famotidine],1.191
11,O=C(O)Cc1ccc(-c2ccccc2)cc1 [Felbinac],−0.0788
12,CCOC(=O)C1=C(C)NC(C)=C(C(=O)OC)C1c1cccc(Cl)c1Cl (centres unmarked) [Felodipine],0.006455
13,COC(=O)Nc1nc2ccc(Sc3ccccc3)cc2[nH]1 [Fenbendazole],−1.607
14,O=C(O)CCC(=O)c1ccc(-c2ccccc2)cc1 [Fenbufen],1.249
15,CC(NCCC(c1ccccc1)c1ccccc1)c1ccccc1 (centres unmarked) [Fendiline hydrochloride],−1.478
16,CC(C)OC(=O)C(C)(C)Oc1ccc(C(=O)c2ccc(Cl)cc2)cc1 [Fenofibrate],0.1742
17,CC(C(=O)O)c1cccc(Oc2ccccc2)c1 (centres unmarked) [Fenoprofen calcium salt dihydrate],0.1244
18,O=C1NCC2(CCN(CCc3ccccc3)CC2)O1 [Fenspiride hydrochloride],−0.01953
19,CC(C)(C(=O)O)c1ccc(C(O)CCCN2CCC(C(O)(c3ccccc3)c3ccccc3)CC2)cc1 (centres unmarked) [Fexofenadine HCl],−0.5086
20,COc1cc(C(=O)OC2CC3CCC(C2)N3C)ccc1O (centres unmarked) [Fillalbin],0.5365
21,CC(C)(C)NC(=O)[C@H]1CC[C@H]2[C@@H]3CC[C@H]4NC(=O)C=C[C@]4(C)[C@H]3CC[C@]12C [Finasteride],−0.9741

row,Compound,z.score.t
1,O=C(COc1ccc(Cl)cc1)N1CCN(Cc2ccc3c(c2)OCO3)CC1 [Fipexide hydrochloride],0.5179
2,Cc1c(-c2ccccc2)oc2c(C(=O)OCCN3CCCCC3)cccc2c1=O [Flavoxate hydrochloride],1.21
3,O=C(NCC1CCCCN1)c1cc(OCC(F)(F)F)ccc1OCC(F)(F)F (centres unmarked) [Flecainide acetate],0.4105
4,CS(=O)(=O)c1ccc([C@@H](O)[C@@H](CF)NC(=O)C(Cl)Cl)cc1 [Florfenicol],0.5365
5,Cc1onc(-c2c(F)cccc2Cl)c1C(=O)N[C@@H]1C(=O)N2[C@@H]1SC(C)(C)[C@@H]2C(=O)O [Flucloxacillin sodium],−1.056
6,Nc1[nH]c(=O)ncc1F [Flucytosine],−0.05622
7,CC(=O)OCC(=O)[C@@]1(O)CC[C@H]2[C@@H]3CCC4=CC(=O)CC[C@]4(C)[C@@]3(F)[C@@H](O)C[C@@]21C [Fludrocortisone acetate],1.278
8,O=C(O)c1ccccc1Nc1cccc(C(F)(F)F)c1 [Flufenamic acid],−1.003
9,Fc1ccc(C(c2ccc(F)cc2)N2CCN(C/C=C/c3ccccc3)CC2)cc1 [Flunarizine dihydrochloride],−1.898
10,CC1(C)O[C@@H]2C[C@H]3[C@@H]4C[C@H](F)C5=CC(=O)C=C[C@]5(C)[C@H]4[C@@H](O)C[C@]3(C)[C@]2(C(=O)CO)O1 [Flunisolide],1.612
11,Cc1c(Nc2ncccc2C(=O)O)cccc1C(F)(F)F [Flunixin meglumine],1.117
12,CC(=O)OCC(=O)[C@@]12OC(C)(C)O[C@@H]1C[C@H]1[C@@H]3C[C@H](F)C4=CC(=O)C=C[C@]4(C)[C@@]3(F)[C@@H](O)C[C@@]12C [Fluocinonide],0.2803
13,CC(=O)[C@@]1(O)CC[C@H]2[C@@H]3C[C@H](C)C4=CC(=O)C=C[C@]4(C)[C@@]3(F)[C@@H](O)C[C@@]21C [Fluorometholone],−0.9741
14,CNCCC(Oc1ccc(C(F)(F)F)cc1)c1ccccc1 (centres unmarked) [Fluoxetine hydrochloride],−0.865
15,OCCN1CCN(CCCN2c3ccccc3Sc3ccc(C(F)(F)F)cc32)CC1 [Fluphenazine dihydrochloride],−1.847
16,CC1(C)O[C@@H]2C[C@H]3[C@@H]4C[C@H](F)C5=CC(=O)CC[C@]5(C)[C@H]4[C@@H](O)C[C@]3(C)[C@]2(C(=O)CO)O1 [Flurandrenolide],0.4741
17,CC(C(=O)O)c1ccc(-c2ccccc2)c(F)c1 (centres unmarked) [Flurbiprofen],1.824
18,O=C1NCN(c2ccccc2)C12CCN(CCCC(c1ccc(F)cc1)c1ccc(F)cc1)CC2 [Fluspirilen],−1.399
19,CC(C)C(=O)Nc1ccc([N+](=O)[O-])c(C(F)(F)F)c1 [Flutamide],0.5856
20,CCC(=O)O[C@]1(C(=O)SCF)[C@H](C)C[C@H]2[C@@H]3C[C@H](F)C4=CC(=O)C=C[C@]4(C)[C@@]3(F)[C@@H](O)C[C@@]21C [Fluticasone propionate],0.1543
21,CC(C)n1c(/C=C/C(O)CC(O)CC(=O)O)c(-c2ccc(F)cc2)c2ccccc21 (centres unmarked) [Fluvastatin sodium salt],−0.4538

row,Compound,z.score.t
1,COCCCC/C(=N\OCCN)c1ccc(C(F)(F)F)cc1 [Fluvoxamine maleate],0.03957
2,Nc1nc2ncc(CNc3ccc(C(=O)N[C@@H](CCC(=O)O)C(=O)O)cc3)nc2c(=O)[nH]1 [Folic acid],0.7312
3,Nc1nc(=O)c2c([nH]1)NCC(CNc1ccc(C(=O)N[C@@H](CCC(=O)[O-])C(=O)[O-])cc1)N2C=O.[Ca+2] (some centres unmarked) [Folinic acid calcium salt],0.1244
4,O=C(O)c1ccccc1OP(=O)(O)O [Fosfosal],0.495
5,O=C1OC(CN2CCOCC2)CN1/N=C/c1ccc([N+](=O)[O-])o1 (centres unmarked) [Furaltadone hydrochloride],2.34
6,NS(=O)(=O)c1cc(C(=O)O)c(NCc2ccco2)cc1Cl [Furosemide],−1.306
7,CC(=O)O[C@H]1C[C@@]2(C)[C@@H](C[C@@H](O)[C@H]3[C@@]4(C)CC[C@@H](O)[C@@H](C)[C@@H]4CC[C@@]32C)/C1=C(\CCC=C(C)C)C(=O)O [Fusidic acid sodium salt],0.6203
8,Fc1ccc(C(OCCN2CCN(CCCc3ccccc3)CC2)c2ccc(F)cc2)cc1 [GBR 12909 dihydrochloride],−1.092
9,COc1ccc(-c2ccc(=N)n(CCCC(=O)O)n2)cc1 [Gabazine],1.252
10,CCOC(=O)c1ccc(OC(=O)CCCCCN=C(N)N)cc1.CS(=O)(=O)O [Gabexate mesilate],0.5136
11,CC[N+](CC)(CC)CCOc1cccc(OCC[N+](CC)(CC)CC)c1OCC[N+](CC)(CC)CC [Gallamine triethiodide],−0.1538
12,Nc1nc(O)c2ncn(COC(CO)CO)c2n1 [Ganciclovir],−0.5992
13,Cc1ccc(C)c(OCCCC(C)(C)C(=O)O)c1 [Gemfibrozil],0.4486
14,C=C1C[C@]23C[C@@]1(O)CC[C@H]2[C@@]12C=C[C@H](O)[C@@](C)(C(=O)O1)[C@H]2[C@@H]3C(=O)O [Gibberellic acid],−0.3452
15,COc1ccc(Cl)cc1C(=O)NCCc1ccc(S(=O)(=O)NC(=O)NC2CCCCC2)cc1 [Glibenclamide],−0.7776
16,Cc1ccc(S(=O)(=O)NC(=O)NN2CC3CCCC3C2)cc1 (centres unmarked) [Gliclazide],−0.03629
17,CCC1=C(C)CN(C(=O)NCCc2ccc(S(=O)(=O)NC(=O)N[C@H]3CC[C@H](C)CC3)cc2)C1=O [Glimepiride],1.252
18,Cc1cnc(C(=O)NCCc2ccc(S(=O)(=O)NC(=O)NC3CCCCC3)cc2)cn1 [Glipizide],1.43
19,COc1ccc2c(c1)C(=O)N(CCc1ccc(S(=O)(=O)NC(=O)NC3CCCCC3)cc1)C(=O)C2(C)C [Gliquidone],2.369
20,C[C@H](CCC(=O)NCC(=O)O)[C@H]1CC[C@H]2[C@@H]3[C@H](O)C[C@@H]4C[C@H](O)CC[C@]4(C)[C@H]3C[C@H](O)[C@]12C [Glycocholic acid],−0.8478
21,C[N+]1(C)CCC(OC(=O)C(O)(c2ccccc2)C2CCCC2)C1 (centres unmarked) [Glycopyrrolate],−0.1913
